Results filed as inconclusive are left out. Calls of active or inactive are those of the source.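 Rule for the calls: active = signal-lowering compounds whose fitted half-maximal concentration is at most ten times their highest tested dose; inconclusive = flat fit between -30 and -70%, or poor fit; inactive = flat within 30%, signal rising, or potency beyond limit.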
target: POS-1 (Caenorhabditis elegans) binding to mex-3 RNA; test: inhibitors of POS-1/mex-3 RNA binding, dose response, counter-screen for MEX-5 RNA-binding inhibitor project, biochemical, fluorescence polarization, cherry-picked samples, set 2 (AID 493130); conditions: POS-1/mex-3 RNA fluorescence polarization, 1 h;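 note: POS-1 as maltose binding protein fusion made in E. coli with FITC RNA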

Row | Structure (SMILES) | AC50
1 | O=[N+]([O-])c1ccccc1NC(=S)N/N=C/c1ccc(O)c(O)c1 | 5.42 µM
2 | COc1ccccc1C(=O)Oc1ccc2c(c1)O/C(=C\c1ccncc1)C2=O | 3.41 µM
3 | COC(=O)c1cc2c(-c3ccccc3)c(C)c3ccccn3c-2c1C(=O)OC | > 10 µM (inactive)
4 | N=C1CCC(=N)c2c1c(O)c1ccccc1c2O | 5.58 µM
5 | CCCC1C2CN(C(C)C)CC=C2C(C#N)=C(N)C1(C#N)C#N (configuration not stated) | 1.81 µM
6 | O=C(c1ccc(Cl)cc1)C1C2C(=O)N(c3ccccc3)C(=O)C2C2CCCN21 (configuration not stated) | 5.95 µM
7 | CC(=O)Nc1ccc2cc3ccc(NC(C)=O)cc3nc2c1 | 6.38 µM
8 | CN(C)c1ccc2nc3c(=O)[nH]c(=O)nc-3n(CC(O)C(O)C(O)CO)c2c1 (configuration not stated) | 9.63 µM
9 | Cc1cc(-c2csc(N)n2)c(C)n1C | 8.77 µM
10 | CCc1ccc[n+](-c2[nH]c(=O)sc2/C=N/NC([S-])=Nc2ccccc2)c1 | 2.54 µM
11 | CCCC1=NN2C(=N)/C(=C\c3ccc(SCc4ccco4)o3)C(=O)N=C2S1 | 0.699 µM
12 | CCOc1ccc(N=Nc2c(=O)[nH]n3c(=O)cc(C)[nH]c23)cc1 | > 10 µM (inactive)
13 | O=C(Nc1nc2c(s1)CN(Cc1ccccc1)CC2)c1cccc(S(=O)(=O)N2CCc3ccccc32)c1 | 7.79 µM
14 | Cc1cc(O)c(-c2cc(O)c(C)cc2O)cc1O | 10.1 µM
15 | O=C(N/N=C/c1c(O)n(C2CC2)c(=S)[nH]c1=O)c1ccccc1O | 6.64 µM

same assay, conditions: POS-1/mex-3 RNA fluorescence polarization, 1 h; at 10 µM (top of the series)

Row | Structure (SMILES) | activity change, negative = inhibition
16 | Cn1ccc(=Nc2ccc(NC(=O)c3ccc(N=c4ccn(C)c5ccc([N+](=O)[O-])cc45)cc3)cc2)cc1 | inactive
17 | Cc1cc(C)c([C@@H]2C[C@H]3CN(C4CCCC4)C(=O)[C@]34CCCN24)c(-n2cccn2)c1 | inactive
18 | COCCn1c(=N)c(S(=O)(=O)c2ccc(F)cc2)cc2c(=O)n3ccccc3nc21 | inactive
19 | O=C1OC(C(=O)O)Cc2ccccc21 (configuration not stated) | inactive
20 | CC(C)c1cc[n+](-c2nc([O-])sc2C=O)cc1 | inactive
21 | Nc1ccc2nc(CN3CCOCC3)[nH]c2c1 | inactive
22 | O=C(CCCN1C(=O)/C(=C/c2ccccc2Cl)SC1=S)NNC(=O)c1ccc(Cl)cc1 | inactive
23 | CCOC(=O)c1c(-c2ccc(C)o2)csc1NC(=S)NC(=O)c1cccs1 | inactive
24 | CCN(CC(=O)Nc1ccc(NC(C)=O)cc1)Cc1c(O)ccc2cc(Br)ccc12 | inactive
25 | CCOc1cc(/C=N/NC(=O)N/N=C/c2ccc(O)c(OCC)c2)ccc1O | inactive
26 | CN1CN(C)c2cccc3cccc1c23 | inactive
27 | CCOC(=O)c1sc2nc(C)[nH]c(=S)c2c1C | inactive
28 | Cc1ccc(O)c(N=CC2=C(O)c3ccccc3C2=O)c1 | inactive
29 | Cn1ncc2c(NNC(=O)c3ccc(Cl)cc3Cl)ncnc21 | inactive
30 | CCc1ccc(/C=C2/C(=O)N(CC)C(=S)N2C)s1 | inactive
31 | Cc1ccc([C@@H]2C3COCC=C3C(C#N)=C(N)C2(C#N)C#N)o1 (some centres not stated) | inactive
32 | Cc1cc(=O)[nH]c(SCc2nc3ccc([N+](=O)[O-])cc3[nH]2)n1 | inactive
33 | COc1ccc(/C=C2\CCCc3c2nc2ccc(C)cc2c3C(=O)O)cc1O | inactive
34 | C[C@H](O)CC1=C[C@H](O)[C@@H](C)OC1=O | inactive
35 | COc1ccc(/C=N/NC(=O)c2ccc(=O)[nH]n2)cc1OC | inactive
36 | COc1ccc(N=Nc2c(C)[nH][nH]c2=O)cc1 | inactive
37 | CCCOc1ccc([C@@H]2C3CN(C(=O)OCC)CC=C3C(C#N)=C(N)C2(C#N)C#N)cc1OC (some centres not stated) | inactive
38 | O=C(O)c1ccc(NCc2cccnc2)cc1 | inactive
39 | O=C(N/N=C/c1c(O)n(Cc2ccco2)c(=O)[nH]c1=O)c1ccccc1 | inactive
40 | CC(=Nc1ccc(C)cc1C)c1sc2ccccc2c1O | inactive
41 | O=C(N/N=C/c1cccnc1)c1ccccc1 | inactive

Row | Structure (SMILES) | activity change, negative = inhibition
42 | Cc1cc(C)c2c3c(sc2n1)C(c1ccccc1)C(C#N)=C(N)O3 (configuration not stated) | inactive
43 | CC(=Nc1ccc(C)cc1)c1sc2ccccc2c1O | inactive
44 | CCNC(=S)NNC(=O)c1ccccn1 | inactive
45 | O=C(/C=C(\O)c1ccccc1)C(=O)NNC(=O)c1ccccc1 | inactive
46 | O=C(NNc1ncnc2c1cnn2-c1ccc(F)cc1)c1ccco1 | inactive
47 | Cc1cccc(/C=N/NC(=O)Cn2nnnc2N)n1 | inactive
48 | COc1ccc(NC(=O)c2coc(C)c2)cc1 | inactive
49 | CC1=NN2C(=N)/C(=C\c3ccc(SCc4ccccc4)o3)C(=O)N=C2S1 | inactive
50 | CCN1C/C(=C/c2ccc(OC)c(O)c2)C(=O)/C(=C/c2ccc(OC)c(O)c2)C1 | inactive
51 | COc1cccc(/C=N/NC(=O)N/N=C/c2cccc(OC)c2O)c1O | inactive
52 | O=C1SC(SCc2ccccc2)=N/C1=C\c1ccc(C(=O)O)cc1 | inactive
53 | C#CCN1C(=O)S/C(=C\c2ccc(-c3ccc(Cl)c(C(=O)O)c3)o2)C1=O | inactive
54 | CCOC(=O)Cc1csc(NC(=O)c2sc3nc4ccc(C)cc4cc3c2N)n1 | inactive
55 | O=C1S/C(=C\c2cccs2)C(=O)N1c1ccc(O)cc1 | inactive
56 | O=C1NC(=O)/C(=C/c2ccc(N3CCOCC3)o2)N1 | inactive
57 | Oc1c(C=Nc2ccccc2)sc(=S)n1Cc1ccccc1 | inactive
58 | CSc1ccc(/C=C/C(=O)c2ccc(NC(C)=O)cc2)cc1 | inactive
59 | CN1/C(=C\C=C(/C#N)C(=O)Nc2ccccc2F)C(C)(C)c2ccccc21 | inactive
60 | Nc1ccc2nc[nH]c2c1 | inactive
61 | COCC1CCN(Cc2c(C(=O)N3CCN(C4CCCCC4)CC3)nc3ccccn23)C1 (configuration not stated) | inactive
62 | O=C(O)COc1ccc(Br)cc1C(c1c(C(=O)O)[nH]c2ccccc12)c1c(C(=O)O)[nH]c2ccccc12 | inactive
63 | Cc1sc2ncnc(N/N=C/c3ccccc3O)c2c1C | inactive
64 | N#C/C(=N\Nc1cccc(C(F)(F)F)c1)C(=O)c1ccsc1 | inactive
65 | CCCNc1nc2ccccc2n2c(C)nnc12 | inactive
66 | COC1=C(Nc2ccc(O)cc2)C(=O)c2ccccc2C1=O | inactive
67 | COc1ccc2c(c1)-c1ccccc1S(=O)(=O)N2C(C)=O | inactive

Row | Structure (SMILES) | activity change, negative = inhibition
68 | OC(CNC1CCCC1)COc1ccccc1Br (configuration not stated) | inactive
69 | COc1ccc(NCc2cccnc2)cc1 | inactive
70 | CC(=O)Nc1ccc(-c2csc(Nc3cccc(C)n3)n2)cc1 | inactive
71 | Nc1ccc2oc(-c3ccccc3Cl)cc(=O)c2c1O | inactive
72 | COc1ccc2c(c1OC)CN1CCc3cc4c(cc3[C@@H]1[C@@H]2O)OCO4 | inactive
73 | C#CCOCCOCCOCCNc1nc(N2CCN(C(=O)[C@H](CCCCN)n3cc(C(N)CO)nn3)CC2)nc(N2CCN(C(=O)[C@H](CCC(=O)O)n3cc(C(N)CC(C)C)nn3)CC2)n1 (some centres not stated) | inactive
74 | CC1CN(Cc2c(O)ccc3c2oc(=O)c2ccccc23)CC(C)O1 (configuration not stated) | inactive
75 | COc1ccc(OC)c(/C=N/NC(=O)c2ccc(=O)[nH]n2)c1 | inactive
76 | O=C(Cc1csc(N2CCOCC2)n1)N/N=C/c1ccc(O)c(O)c1O | inactive
77 | O=C(O)c1ccc2cccnc2n1 | inactive
78 | CC(C)=CCc1c(O)cc(O)c2c(=O)c(O[C@@H]3O[C@@H](C)[C@H](O)[C@@H](O)[C@H]3O)c(-c3ccc(O)cc3)oc12 | inactive
79 | CCN(CC)c1ccc(N2C(=O)c3ccccc3C2=O)cc1 | inactive
80 | Cc1cc(/C=C2/C(=N)N3C(=NC2=O)SN=C3S(C)(=O)=O)c(C)n1-c1ccc(F)cc1 | inactive
81 | COc1cc2c(cc1O)CC1c3c(cc(O)c(OC)c3-2)CCN1C (configuration not stated) | inactive
82 | COc1ccc2nc3ccccc3nc2c1N | inactive
83 | O=S(=O)(Nc1ccc(O)c(NS(=O)(=O)c2ccccc2)c1)c1ccccc1 | inactive
84 | O=C(O)c1ccc2c(c1)ncn2C1CCCCC1 | inactive
85 | O=C(NNC(=O)c1cc(Cl)ccc1[N+](=O)[O-])c1csc(N2CCOCC2)n1 | inactive
86 | CC1(C)CC(=O)C2=C(C1)Nc1cc(Cl)ccc1S2 | inactive
87 | O=c1c2ccccc2nc(/C=C/c2ccc([N+](=O)[O-])cc2)n1CCCO | inactive
88 | COc1ccc(CC(=O)NNC(=O)c2cnccn2)cc1 | inactive
89 | O=[N+]([O-])c1cc(S(=O)(=O)c2ccc(O)c([N+](=O)[O-])c2)ccc1O | inactive
90 | CCOc1ccc(/C=C2/C(=O)N(c3ccc(OC)cc3)C(=S)N2CC(=O)OC)cc1OCC | inactive
91 | O=C(Nc1cccnc1)c1cccs1 | inactive
92 | COc1ccc(CN2C(=O)NC(=O)/C(=C\c3ccco3)C2=O)cc1 | inactive

Reference: PubChem BioAssay AID493130 (Broad Institute, 2011)
